Experimental data: patent publication US12435044B2, “Pyridazinone herbicides and pyridazinone intermediates used to prepare a herbicide” (FMC Corporation, priority 2018, dated 2025)

Experiments:
Test in all cases: Test C pre-/postemergence greenhouse test
Format in all cases: in vivo
Conditions in all cases: scale 0 to 100
[1] = tested on: oilseed rape (Brassica napus)
Method in brief: (§1)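 Test chemicals were formulated in a non-phytotoxic solvent mixture with surfactant and applied preemergence to seeds in silt loam soil or postemergence to plants of 2 to 18 cm in a peat/vermiculite medium. After 13 to 21 d in a greenhouse, response was visually scored from 0 (no effect) to 100 (complete control).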

[2] = tested on: velvetleaf (Abutilon theophrasti)
Method in brief: as §1

[3] = tested on: ryegrass, Italian (Lolium multiflorum)
Method in brief: as §1

[4] = tested on: wheat, winter (winter wheat, Triticum aestivum)
Method in brief: as §1

[5] = tested on: crabgrass, large (Digitaria sanguinalis)
Method in brief: as §1

[6] = tested on: ragweed (common ragweed, Ambrosia elatior)
Method in brief: as §1

[7] = tested on: foxtail, giant (Setaria faberii)
Method in brief: as §1

soybean (Glycine max) = tested on: soybean (Glycine max)
Method in brief: as §1

[8] = tested on: windgrass (Apera spica-venti)
Method in brief: as §1

[9] = tested on: poinsettia, wild (Euphorbia heterophylla)
Method in brief: as §1

[10] = tested on: blackgrass (Alopecurus myosuroides)
Method in brief: as §1

[11] = tested on: lambsquarters (Chenopodium album)
Method in brief: as §1

[12] = tested on: morningglory (Ipomoea coccinea)
Method in brief: as §1

Cc1cc(Cl)c2ccccc2c1-c1c(O)c(Cl)nn(C)c1=O [Cpd. No. 65]
85: Plant response rating, Velvetleaf ([2]; Postemergence, 31 g ai/ha) | Plant response rating, Ryegrass, Italian ([3]; Postemergence, 16 g ai/ha) | Plant response rating, Soybean (soybean (Glycine max); Postemergence, 125 g ai/ha) | Plant response rating, Blackgrass ([10]; Preemergence, 125 g ai/ha)
0: Plant response rating, Crabgrass, Large ([5]; Preemergence, 31 g ai/ha) | Plant response rating, Crabgrass, Large ([5]; Preemergence, 61 g ai/ha) | Plant response rating, Soybean (soybean (Glycine max); Preemergence, 31 g ai/ha) | Plant response rating, Soybean (soybean (Glycine max); Preemergence, 61 g ai/ha)
100: Plant response rating, Oilseed Rape ([1]; Postemergence, 31 g ai/ha) | Plant response rating, Oilseed Rape ([1]; Postemergence, 62 g ai/ha) | Plant response rating, Oilseed Rape ([1]; Postemergence, 125 g ai/ha) | Plant response rating, Oilseed Rape ([1]; Preemergence, 125 g ai/ha) | Plant response rating, Velvetleaf ([2]; Postemergence, 62 g ai/ha) | Plant response rating, Velvetleaf ([2]; Postemergence, 125 g ai/ha) | Plant response rating, Velvetleaf ([2]; Preemergence, 125 g ai/ha) | Plant response rating, Ragweed ([6]; Postemergence, 31 g ai/ha) | Plant response rating, Ragweed ([6]; Preemergence, 125 g ai/ha) | Plant response rating, Foxtail, Giant ([7]; Preemergence, 125 g ai/ha) | Plant response rating, Windgrass ([8]; Preemergence, 125 g ai/ha) | Plant response rating, Poinsettia, Wild ([9]; Postemergence, 125 g ai/ha) | Plant response rating, Poinsettia, Wild ([9]; Preemergence, 125 g ai/ha) | Plant response rating, Lambsquarters ([11]; Postemergence, 62 g ai/ha) | Plant response rating, Lambsquarters ([11]; Postemergence, 125 g ai/ha) | Plant response rating, Lambsquarters ([11]; Preemergence, 125 g ai/ha) | Plant response rating, Morningglory ([12]; Postemergence, 31 g ai/ha) | Plant response rating, Morningglory ([12]; Postemergence, 62 g ai/ha) | Plant response rating, Morningglory ([12]; Postemergence, 125 g ai/ha)
55: Plant response rating, Blackgrass ([10]; Postemergence, 16 g ai/ha) | Plant response rating, Blackgrass ([10]; Preemergence, 62 g ai/ha) | Plant response rating, Morningglory ([12]; Preemergence, 61 g ai/ha)
10: Plant response rating, Blackgrass ([10]; Preemergence, 61 g ai/ha)
20: Plant response rating, Lambsquarters ([11]; Preemergence, 61 g ai/ha)
90: Plant response rating, Wheat ([4]; Postemergence, 16 g ai/ha) | Plant response rating, Wheat ([4]; Preemergence, 125 g ai/ha) | Plant response rating, Windgrass ([8]; Postemergence, 16 g ai/ha) | Plant response rating, Windgrass ([8]; Postemergence, 31 g ai/ha) | Plant response rating, Blackgrass ([10]; Postemergence, 31 g ai/ha) | Plant response rating, Blackgrass ([10]; Postemergence, 62 g ai/ha) | Plant response rating, Lambsquarters ([11]; Postemergence, 16 g ai/ha) | Plant response rating, Lambsquarters ([11]; Preemergence, 62 g ai/ha) | Plant response rating, Morningglory ([12]; Preemergence, 31 g ai/ha)
25: Plant response rating, Poinsettia, Wild ([9]; Preemergence, 61 g ai/ha)
70: Plant response rating, Ryegrass, Italian ([3]; Preemergence, 31 g ai/ha) | Plant response rating, Crabgrass, Large ([5]; Postemergence, 125 g ai/ha) | Plant response rating, Poinsettia, Wild ([9]; Postemergence, 16 g ai/ha) | Plant response rating, Poinsettia, Wild ([9]; Preemergence, 62 g ai/ha)
30: Plant response rating, Wheat ([4]; Preemergence, 61 g ai/ha) | Plant response rating, Crabgrass, Large ([5]; Postemergence, 16 g ai/ha) | Plant response rating, Soybean (soybean (Glycine max); Preemergence, 125 g ai/ha)
40: Plant response rating, Velvetleaf ([2]; Postemergence, 16 g ai/ha) | Plant response rating, Velvetleaf ([2]; Preemergence, 61 g ai/ha) | Plant response rating, Ryegrass, Italian ([3]; Preemergence, 61 g ai/ha) | Plant response rating, Crabgrass, Large ([5]; Postemergence, 31 g ai/ha) | Plant response rating, Crabgrass, Large ([5]; Postemergence, 62 g ai/ha)
60: Plant response rating, Velvetleaf ([2]; Preemergence, 31 g ai/ha) | Plant response rating, Wheat ([4]; Preemergence, 31 g ai/ha) | Plant response rating, Crabgrass, Large ([5]; Preemergence, 62 g ai/ha)
5: Plant response rating, Oilseed Rape ([1]; Preemergence, 31 g ai/ha) | Plant response rating, Oilseed Rape ([1]; Preemergence, 61 g ai/ha) | Plant response rating, Soybean (soybean (Glycine max); Preemergence, 62 g ai/ha) | Plant response rating, Blackgrass ([10]; Preemergence, 31 g ai/ha)
35: Plant response rating, Foxtail, Giant ([7]; Preemergence, 61 g ai/ha) | Plant response rating, Poinsettia, Wild ([9]; Preemergence, 31 g ai/ha)
95: Plant response rating, Oilseed Rape ([1]; Postemergence, 16 g ai/ha) | Plant response rating, Ryegrass, Italian ([3]; Postemergence, 31 g ai/ha) | Plant response rating, Ryegrass, Italian ([3]; Postemergence, 62 g ai/ha) | Plant response rating, Ryegrass, Italian ([3]; Postemergence, 125 g ai/ha) | Plant response rating, Ryegrass, Italian ([3]; Preemergence, 62 g ai/ha) | Plant response rating, Ryegrass, Italian ([3]; Preemergence, 125 g ai/ha) | Plant response rating, Wheat ([4]; Postemergence, 31 g ai/ha) | Plant response rating, Wheat ([4]; Postemergence, 62 g ai/ha) | Plant response rating, Wheat ([4]; Postemergence, 125 g ai/ha) | Plant response rating, Ragweed ([6]; Preemergence, 31 g ai/ha) | Plant response rating, Foxtail, Giant ([7]; Postemergence, 16 g ai/ha) | Plant response rating, Foxtail, Giant ([7]; Postemergence, 31 g ai/ha) | Plant response rating, Foxtail, Giant ([7]; Preemergence, 62 g ai/ha) | Plant response rating, Windgrass ([8]; Postemergence, 62 g ai/ha) | Plant response rating, Windgrass ([8]; Postemergence, 125 g ai/ha) | Plant response rating, Windgrass ([8]; Preemergence, 62 g ai/ha) | Plant response rating, Poinsettia, Wild ([9]; Postemergence, 31 g ai/ha) | Plant response rating, Blackgrass ([10]; Postemergence, 125 g ai/ha) | Plant response rating, Morningglory ([12]; Preemergence, 125 g ai/ha)
75: Plant response rating, Velvetleaf ([2]; Preemergence, 62 g ai/ha) | Plant response rating, Foxtail, Giant ([7]; Preemergence, 31 g ai/ha) | Plant response rating, Soybean (soybean (Glycine max); Postemergence, 31 g ai/ha)
80: Plant response rating, Wheat ([4]; Preemergence, 62 g ai/ha) | Plant response rating, Soybean (soybean (Glycine max); Postemergence, 62 g ai/ha) | Plant response rating, Windgrass ([8]; Preemergence, 31 g ai/ha) | Plant response rating, Poinsettia, Wild ([9]; Postemergence, 62 g ai/ha) | Plant response rating, Lambsquarters ([11]; Preemergence, 31 g ai/ha)
65: Plant response rating, Crabgrass, Large ([5]; Preemergence, 125 g ai/ha) | Plant response rating, Ragweed ([6]; Preemergence, 61 g ai/ha) | Plant response rating, Soybean (soybean (Glycine max); Postemergence, 16 g ai/ha)
98: Plant response rating, Oilseed Rape ([1]; Preemergence, 62 g ai/ha) | Plant response rating, Ragweed ([6]; Postemergence, 16 g ai/ha) | Plant response rating, Ragweed ([6]; Postemergence, 62 g ai/ha) | Plant response rating, Ragweed ([6]; Postemergence, 125 g ai/ha) | Plant response rating, Ragweed ([6]; Preemergence, 62 g ai/ha) | Plant response rating, Foxtail, Giant ([7]; Postemergence, 62 g ai/ha) | Plant response rating, Foxtail, Giant ([7]; Postemergence, 125 g ai/ha) | Plant response rating, Lambsquarters ([11]; Postemergence, 31 g ai/ha) | Plant response rating, Morningglory ([12]; Postemergence, 16 g ai/ha) | Plant response rating, Morningglory ([12]; Preemergence, 62 g ai/ha)
50: Plant response rating, Windgrass ([8]; Preemergence, 61 g ai/ha)
